Measured values taken from BindingDB's records for doi:10.7270/Q2DN43N5 (Burnham Center For Chemical Genomics, 2013).
pIC50: −log10 of the molar value. Structures can show the parent of a compound that is named as a salt.

Target: T1, Tyrosine-protein phosphatase non-receptor type 22 (Homo sapiens, UniProt Q9Y2R2)
T1 sequence (Q9Y2R2 whole entry): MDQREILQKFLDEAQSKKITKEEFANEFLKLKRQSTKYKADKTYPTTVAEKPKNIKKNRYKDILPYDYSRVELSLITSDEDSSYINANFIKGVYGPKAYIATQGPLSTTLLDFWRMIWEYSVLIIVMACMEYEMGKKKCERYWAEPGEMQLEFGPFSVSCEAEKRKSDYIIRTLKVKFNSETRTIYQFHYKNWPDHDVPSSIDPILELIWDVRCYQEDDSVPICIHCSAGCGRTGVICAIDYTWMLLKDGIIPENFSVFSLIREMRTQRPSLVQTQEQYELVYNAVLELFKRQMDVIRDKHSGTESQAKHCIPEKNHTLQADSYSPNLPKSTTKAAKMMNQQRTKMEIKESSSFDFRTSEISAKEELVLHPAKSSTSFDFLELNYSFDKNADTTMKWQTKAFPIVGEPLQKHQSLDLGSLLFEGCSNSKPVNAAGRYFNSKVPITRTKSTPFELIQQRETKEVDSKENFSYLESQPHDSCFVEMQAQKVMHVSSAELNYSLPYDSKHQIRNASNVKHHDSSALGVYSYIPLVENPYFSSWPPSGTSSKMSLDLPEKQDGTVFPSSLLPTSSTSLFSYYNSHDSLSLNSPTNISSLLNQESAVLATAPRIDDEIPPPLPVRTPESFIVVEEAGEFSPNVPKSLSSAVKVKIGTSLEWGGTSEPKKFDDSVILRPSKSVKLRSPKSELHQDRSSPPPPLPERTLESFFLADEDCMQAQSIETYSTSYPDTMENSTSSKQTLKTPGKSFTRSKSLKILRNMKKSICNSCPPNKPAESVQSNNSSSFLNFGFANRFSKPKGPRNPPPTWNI

SMILES | pIC50
Cc1c(CCC(=O)O)c(=O)oc2c(C)c(OCc3ccccc3Cl)ccc12 [3-[7-[(2-chlorophenyl)methoxy]-4,8-dimethyl-2-oxochromen-3-yl]propanoic acid] | < 4.10
Cc1ccc(-c2nc(NC(=O)CSc3cc(C)c4ccccc4n3)ns2)cc1 [2-[(4-methyl-2-quinolyl)thio]-N-[5-(p-tolyl)-1,2,4-thiadiazol-3-yl]acetamide] | < 4.10
CCc1nc(N)nc(N)c1-c1ccc(Cl)cc1 | < 4.10
CCN(c1ccccc1)S(=O)(=O)c1cc(C(=O)O)ccc1C [3-[ethyl(phenyl)sulfamoyl]-4-methyl-benzoic acid] | < 4.10
Cc1cc(N2CCC(C)CC2)[nH]c2cccc(=O)c1-2 [4-methyl-2-(4-methyl-1-piperidinyl)-1H-quinolin-5-one] | < 4.10
COc1ccc(/N=c2\[nH]c(=O)c3cc([N+](=O)[O-])ccc3s2)cc1 [2-(4-methoxyanilino)-6-nitro-1,3-benzothiazin-4-one] | < 4.10
Cc1ccc(-c2nc(NCCN3CCOCC3)c3ccccc3n2)cc1 [SMR000108805] | < 4.10
Cc1cccc(-c2nc(NCCCN3CCOCC3)c3ccccc3n2)c1 | < 4.10
O=C(CCCOc1ccc(Cl)cc1Cl)NNC(=O)c1ccc(NC(=O)c2ccccc2)cc1 [N-[4-[[4-[2,4-bis(chloranyl)phenoxy]butanoylamino]carbamoyl]phenyl]benzamide] | < 4.10
Cc1cccc2nc(-c3ccccc3)nc(N[C@@H](CO)c3ccccc3)c12 [(2R)-2-[(5-methyl-2-phenylquinazolin-4-yl)amino]-2-phenylethanol] | < 4.10
Cc1ccc(-c2nc(NCc3cccnc3)c3ccccc3n2)cc1 [Pyridin-3-ylmethyl-(2-p-tolyl-quinazolin-4-yl)-amine] | < 4.10
CC(C)Oc1ccc(-c2nc(NCC3CCCO3)c3ccccc3n2)cc1 (configuration not stated) [SMR000433802] | < 4.10
Cc1ccccc1Nc1cc(C)c2c(=O)cccc-2[nH]1 | < 4.10
O=c1cc(-c2cc3ccccc3o2)c2cc(O)ccc2o1 [MLS001167639] | < 4.10
c1ccc(-c2nc(NCCCn3ccnc3)c3ccccc3n2)cc1 [MLS001007021] | < 4.10
O=C(OCCNc1nc(-c2ccccc2)nc2ccccc12)c1cccnc1 [3-pyridinecarboxylic acid 2-[(2-phenyl-4-quinazolinyl)amino]ethyl ester] | < 4.10
c1ccc(-c2cc(NCCN3CCCCC3)c3ccccc3n2)cc1 [SMR000567889] | < 4.10
Nc1nc(N)c(Cc2ccc(Cl)cc2Cl)c(N)n1 [MLS000691890] | < 4.10
Fc1ccccc1-c1nc(NCCCN2CCOCC2)c2ccccc2n1 [2-(2-fluorophenyl)-N-(3-morpholin-4-ylpropyl)quinazolin-4-amine] | < 4.10

SMILES | pIC50
CCOc1cc(CN=Nc2nc(O)c(CC(=O)O)s2)ccc1OCc1ccc(Cl)cc1Cl [2-[2-[(N''E)-N''-[4-(2,4-dichlorobenzyl)oxy-3-ethoxy-benzylidene]hydrazino]-4-keto-2-thiazolin-5-yl]acetic acid] | 4.64
N=c1c(C(=O)NCc2ccc3c(c2)OCO3)cc2c(=O)n3ccccc3nc2n1Cc1cccnc1 [2-azanylidene-N-(1,3-benzodioxol-5-ylmethyl)-5-oxidanylidene-1-(pyridin-3-ylmethyl)dipyrido[1,2-d:3',4'-f]pyrimidine-3-carboxamide] | < 4.10
c1ccc(-c2nc(NCc3cccnc3)c3ccccc3n2)cc1 | < 4.10
Fc1ccccc1-c1nc(NC2CCCC2)c2ccccc2n1 [N-cyclopentyl-2-(2-fluorophenyl)quinazolin-4-amine] | < 4.10
c1ccc(-c2cc(N3CCCCC3)c3ccccc3n2)cc1 [2-phenyl-4-piperidin-1-ylquinoline] | < 4.10
c1ccc(-c2nc(NCCCN3CCOCC3)c3ccccc3n2)cc1 [SMR000071192] | < 4.10
CNc1nc(NC)c2c[nH]nc2n1 [4-N,6-N-dimethyl-1H-pyrazolo[3,4-d]pyrimidine-4,6-diamine] | < 4.10
Cc1nccc(O)c1Cc1c(Cl)cccc1Cl | < 4.10
CCc1nc(N)nc(N)c1-c1ccc(NCCN)c([N+](=O)[O-])c1 | < 4.10
Clc1cccc(Cl)c1Cn1cnc(NCc2ccco2)c2ncnc1-2 [SMR000036870] | < 4.10
CCc1nc(N)nc(N)c1-c1ccc(Cl)c(N=[N+]=[N-])c1 [5-(3-azido-4-chlorophenyl)-6-ethylpyrimidine-2,4-diamine;ethanesulfonic acid] | < 4.10
CC(C)OCCCNc1nc(-c2ccccc2)nc2ccccc12 [2-phenyl-N-(3-propan-2-yloxypropyl)-4-quinazolinamine;hydrochloride] | < 4.10
COCCNc1nc(NCc2cccc(OC)c2OC)c2sccc2n1 [4-N-[(2,3-dimethoxyphenyl)methyl]-2-N-(2-methoxyethyl)thieno[3,2-d]pyrimidine-2,4-diamine] | < 4.10
CCCCC(=O)Nc1ccc(C(=O)NNC(=O)c2ccc(C)c(Br)c2)cc1 [N-(4-{[2-(3-bromo-4-methylbenzoyl)hydrazino]carbonyl}phenyl)pentanamide] | < 4.10
O=C(OCCNc1nc(-c2ccccc2)nc2ccccc12)c1ccncc1 [2-[(2-phenylquinazolin-4-yl)amino]ethyl pyridine-4-carboxylate] | < 4.10
COc1ccccc1CNc1nc(NCc2cnc(C)cn2)c2sccc2n1 [2-N-[(2-methoxyphenyl)methyl]-4-N-[(5-methylpyrazin-2-yl)methyl]thieno[3,2-d]pyrimidine-2,4-diamine] | < 4.10
Cc1nc(N)nc(N)c1-c1ccc([N+](=O)[O-])cc1 [6-methyl-5-(4-nitrophenyl)pyrimidine-2,4-diamine] | < 4.10
CN(C)c1nc(N)nc(/C(C#N)=C/C2CC3C=CC2C3)n1 (configuration not stated) | < 4.10
